Assay results published in article PMC4014704, “β-Boomerang Antimicrobial and Antiendotoxic Peptides: Lipidation and Disulfide Bond Effects on Activity and Structure” (Pharmaceuticals, 2014).
Peptide text beside a SMILES is read from it.

Tests used:
[1] = system: E. coli cells; test: Zeta potential measurements; type: cell-based; conditions: increasing peptide concentrations, E. coli cells
Description: Zeta potential measurements: The zeta potential measurements were carried out on a Zetasizer Nano ZS (Malvern Instruments, Worcestershire, UK) equipped with a 633 nm He lasers. Mid-log phase grown bacterial cells were diluted to an OD600 of 0.2 and a basal measurement in the absence of peptides was acquired in disposable zeta cells with gold electrodes. Increasing concentrations of the designed peptides were then added to the cells and the measurements were made. A total of five measurements of 100 runs each were carried out for all dilutions.

[2] = system: LPS micelles; test: Dynamic light scattering of LPS micelles; design: species or system E. coli 0111:B4; conditions: DLS, 0.5 μM LPS, LPS:peptide 1:4; LPS alone 814 nm
Description: Dynamic light scattering measurements: LPS forms micelles of large sizes, which with the addition of increasing concentration of peptides, dissociates to smaller sizes. DLS measurements were made for 0.5 μM LPS and then with LPS: Peptide ratios of 1:2 and 1:4. The scattering was measured with Dynamic Light Scattering software provided with the instrument (Brookhaven Instruments Corp., Holtsville, NY, USA) and the scattering data was analyzed with CONTIN method.

[3] = system: FITC-LPS micelles; test: Dissociation of FITC-LPS; design: species or system E. coli 055:B5; conditions: 500 nM FITC-LPS, increasing peptide, excitation 480 nm, emission 515 nm
Description: Dissociation of FITC-LPS: LPS molecules form micellar aggregates in water. The competency of the peptides to dissociate LPS micelles were studied using FITC conjugated LPS. In this method, blank fluorescence of 500 nM of FITC-LPS was recorded followed by the addition of increasing concentrations of peptides. The excitation was set at 480 nm and emission at 500–550 nm.

[4] = aqueous solution for NMR
Excerpt: (§1) In addition, incorporation of disulfide bridges in AMPs may stabilize conformations and enhance cationicity and hydrophobicity required for enhanced activity. […] Residue Ile10 was chosen for Cys replacement since this residue is located at the exposed face of the β-strand of the YI12WF structure (Figure 1).
The solution conformations of YI13C, C4YI13C peptides were examined in free solution using two-dimensional ^1H-^1H NOESY and TOCSY experiments.

[5] = Reverse phase HPLC retention time (hydrophobicity); type: physicochemical; design: unit not given beside the values; conditions: C18 column (300 Å pore size, 5 μm particle size), linear gradient acetonitrile/water, higher Rt taken as more hydrophobic
Excerpt: Materials: LPS of E. coli 0111:B4, FITC-LPS of E. coli 055:B5, acrylamide, NPN (1-N-phenylnaphthylamine) were purchased from Sigma (Saint Louis, MO, USA). All bacterial strains were obtained from the American Type Culture Collection (Manassas, VA, USA). Designed peptides were synthesized commercially by GL Biochem (Shanghai, China) and further purified by a reverse phase HPLC (Waters), using a C18 column (300 Å pore size, 5 μm particle size). The dimeric variants of β-boomerang lipopeptides were treated with 20% DMSO for 18 hours and the oxidized peptides were further purified by HPLC. A linear gradient of acetonitrile/water mixture was used for the purification and fractions eluting with higher purity were collected and freeze-dried.
as §1

[6] = system: LPS micelles; test: Isothermal titration calorimetry; type: binding, E. coli 0111:B4; conditions: lack of saturation
Description: Isothermal titration calorimetry: Binding of designed peptides with LPS micelles was determined using isothermal titration calorimetry in VP-ITC micro calorimeter (Microcal Inc, Northampton, MA, USA). Peptides and LPS samples were dissolved in 10 mM phosphate buffer, pH 7.0 and filtered. LPS at a concentration of 10 μM was loaded into the sample cell and the reference cell was filled with the same buffer. The syringe was filled with 1mM peptide solution. Typically 30 injections of 3.5 μL of the peptides were made into the sample cell at 25 °C. Sample cell was stirred continuously at 300 rpm. Raw data were obtained and analyzed using single site binding model in Microcal Origin 5.0 software. Association constant (Ka) and enthalpy change (ΔH) were directly determined from ITC profiles. Dissociation constant was calculated from Kd = 1/Ka. ΔG and TΔS were estimated from the fundamental equations of thermodynamics, ΔG = −RTlnKa and TΔS = (ΔH − ΔG), respectively.

[7] = system: outer membrane of E. coli cells; test: Outer membrane permeability assay (NPN dye); type: cell-based; conditions: E. coli OD600 0.5, 10 μM NPN
Description: Outer membrane permeability assay: Outer membrane of Gram bacteria acts as permeability barrier for hydrophobic antibacterial compounds. […] E. coli cells were grown to mid logarithmic phase and diluted to an OD600nm of 0.5 in 10 mM sodium phosphate buffer, pH 7.0. The excitation was set at 350 nm and emission at 390–450 nm. NPN was added to the diluted cells at the concentration of 10 μM and a basal fluorescence was recorded followed by the addition of increasing concentration of peptides.

Question: For `CCCCCCCC(=O)N[C@@H](Cc1ccc(O)cc1)C(=O)N[C@H](C(=O)N[C@@H](CC(C)C)C(=O)N[C@@H](C)C(=O)N[C@@H](CCCCN)C(=O)N[C@@H](CCCNC(=N)N)C(=O)N[C@@H](CCCCN)C(=O)N[C@@H](CCCNC(=N)N)C(=O)N[C@@H](CCCCN)C(=O)N[C@@H](C)C(=O)N[C@@H](CSSC[C@H](NC(=O)[C@H](C)NC(=O)[C@H](CCCCN)NC(=O)[C@H](CCCNC(=N)N)NC(=O)[C@H](CCCCN)NC(=O)[C@H](CCCNC(=N)N)NC(=O)[C@H](CCCCN)NC(=O)[C@H](C)NC(=O)[C@H](CC(C)C)NC(=O)[C@@H](NC(=O)[C@H](Cc1ccc(O)cc1)NC(=O)CCCCCCC)C(C)C)C(=O)N[C@@H](Cc1ccccc1)C(=O)N[C@H](C(N)=O)[C@@H](C)CC)C(=O)N[C@@H](Cc1ccccc1)C(=O)N[C@H](C(N)=O)[C@@H](C)CC)C(C)C` [C8YI13CAA] (HELM PEPTIDE1{[CCCCCCCC(=O)[*:2]].Y.V.L.A.K.R.K.R.K.A.C.F.I.[am]}|PEPTIDE2{[CCCCCCCC(=O)[*:2]].Y.V.L.A.K.R.K.R.K.A.C.F.I.[am]}$PEPTIDE1,PEPTIDE2,12:R3-12:R3$$$V2.0; N-terminus and C-terminus assumed), which “Change in zeta potential (in words)” value [1] is on record?
Answer: did not show any detectable change in zeta potential

Question: What about the “Diameter of LPS aggregates” value [2] of the same compound?
Answer: 630 nm

Question: And the “FITC fluorescence intensity / dissociation of FITC-LPS (in words)” value [3]?
Answer: remained unchanged

Question: And the “Solubility for NMR studies (in words)” value [4]?
Answer: limited solubility

Question: And the “Retention time (Rt)” value [5]?
Answer: 32.38

Question: And the “Interaction with LPS by ITC (in words)” value [6]?
Answer: interacted weakly with LPS

Question: And the “NPN fluorescence intensity with increasing peptide (in words)” value [7]?
Answer: no marked increase in intensity
